Results from patent publication US20050054696A1, “Indole compounds and medicinal use thereof” (priority 2001, published 2005).

Molecular target: T1, recombinant human liver glycogen phosphorylase (HLGPa) (Homo sapiens, UniProt P06737)
T1 construct: made in house; host or cells: Sf9 insect cells (unpurified cell lysate used as enzyme solution)
T1 sequence (P06737 1-847): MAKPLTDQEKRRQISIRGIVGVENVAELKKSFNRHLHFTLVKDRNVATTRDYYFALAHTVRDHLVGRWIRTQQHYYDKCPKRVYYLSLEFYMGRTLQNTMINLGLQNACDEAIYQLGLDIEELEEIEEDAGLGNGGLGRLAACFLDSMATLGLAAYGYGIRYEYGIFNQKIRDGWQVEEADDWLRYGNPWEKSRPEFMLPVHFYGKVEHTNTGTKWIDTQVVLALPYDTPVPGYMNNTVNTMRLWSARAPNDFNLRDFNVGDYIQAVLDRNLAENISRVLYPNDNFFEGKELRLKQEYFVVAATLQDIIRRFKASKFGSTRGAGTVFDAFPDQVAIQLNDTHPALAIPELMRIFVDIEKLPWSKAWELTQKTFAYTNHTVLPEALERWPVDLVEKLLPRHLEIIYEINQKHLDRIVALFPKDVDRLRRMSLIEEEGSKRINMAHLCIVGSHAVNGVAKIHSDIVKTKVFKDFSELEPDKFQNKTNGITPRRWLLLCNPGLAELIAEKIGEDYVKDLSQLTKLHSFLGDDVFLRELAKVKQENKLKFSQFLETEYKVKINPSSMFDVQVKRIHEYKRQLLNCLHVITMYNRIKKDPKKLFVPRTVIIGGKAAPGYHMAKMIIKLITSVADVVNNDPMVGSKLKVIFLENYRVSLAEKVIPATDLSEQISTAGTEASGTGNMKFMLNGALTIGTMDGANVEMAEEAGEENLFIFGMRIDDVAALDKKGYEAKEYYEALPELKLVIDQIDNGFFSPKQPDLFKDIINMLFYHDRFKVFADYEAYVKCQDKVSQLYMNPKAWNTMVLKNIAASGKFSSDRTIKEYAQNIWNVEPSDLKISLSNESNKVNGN
Test: Measurement of liver glycogen phosphorylase activity (enzyme inhibitory activity against HLGPa)
Assay type: biochemical
Conditions: Sf9 cell lysate expressing recombinant enzyme; reverse reaction (glycogen synthesis from G1-P), phosphate by malachite green, 60 min room temperature
Protocol: Measurement Method of Liver Glycogen Phosphorylase Activity
The measurement of the glycogen phosphorylase activity was performed by measuring the concentration of phosphoric acic produced by a reverse reaction, that is, a reaction wherein the glycogen phosphorylase synthesizes glycogen from G1-P. A cell lysate of Sf9 cells that forcibly expressed recombinant human liver glycogen phosphorylase was diluted to a protein amount of 80 μg/mL with 1 mM imidazole-hydrochloric acid buffer (pH 7.0, containing 0.2 mM PMSF, 250 mM NaCl, 0.025% BSA) and the dilute cell lysate was used as an enzyme solution of human liver glycogen phosphorylase. As a substrate solution, 25 mM Tris-HCl buffer (pH 7.2, containing 250 mM KCl, 6.25 mM MgCl2, 6.25 mM EGTA, 1.25 mM glucose-1-phosphate, 2.5 mg/ml glycogen, 7.5 mM glucose) was used. The test drug was dissolved in 0.5% dimethyl sulfoxide (DMSO). To a mixture of the test drug (10 μl) and the substrate solution (20 μl) was added an enzyme solution (20 μl) to start the enzyme reaction. As a control, 0.5% DMSO was added instead of the test drug. One free of addition of enzyme was used as a blank. The mixture was reacted at room temperature for 60 min, and a malachite green solution (50 μl) was added. The mixture was further reacted at room temperature for 20 min and absorbance at 650 nm was measured. An enzyme solution was added to the blank simultaneously with the malachite green solution and the measurement was done in the same manner. The percent inhibition (%) of the test drug was calculated from ((value of control−value of the test drug)/(value of control−value of blank))×100 (%).

Row | IC50 | SMILES
1 | 71 nM | O=C(Nn1c(=O)oc2ccccc2c1=O)c1cc2cc(Cl)ccc2[nH]1 [Example 2-2, N-(1,2,3,4-tetrahydro-2,4-dioxobenzo[e][1,3]oxazin-3-yl)-5-chloro-1H-indole-2-carboxamide]
2 | 360 nM | O=C(NNC(=O)c1cc2cc(Cl)ccc2[nH]1)c1cnccn1 [Example 1-82, pyrazine-2-carboxylic acid 2-(5-chloro-1H-indole-2-carbonyl)hydrazide]
3 | > 100 nM | CN1C(=O)N(NC(=O)c2cc3cc(Cl)ccc3[nH]2)C(=O)[C@@H]1c1ccccc1 [Example 4-12, 5-chloro-1H-indole-2-carboxylic acid (1-methyl-2,5-dioxo-4-phenylimidazolidin-1-yl)amide]
4 | 18 nM | O=C(NNC(=O)c1ccco1)c1cc2cc(Cl)ccc2[nH]1 [Example 1-78, furan-2-carboxylic acid 2-(5-chloro-1H-indole-2-carbonyl)hydrazide]
5 | 810 nM | Nc1ccccc1C(=O)NNC(=O)c1cc2ccc(Cl)cc2[nH]1 [Example 1-39, 2-aminobenzoic acid 2-(6-chloro-1H-indole-2-carbonyl)hydrazide]
6 | 190 nM | O=C(NN1C(=O)CCN(c2ccccn2)C1=O)c1cc2cc(Cl)ccc2[nH]1 [Example 3-6, 5-chloro-1H-indole-2-carboxylic acid (2,4-dioxo-1-(pyridin-2-yl)perhydropyrimidin-3-yl)amide]
7 | 49 nM | O=C(NNC(=O)c1cc2cc(Cl)ccc2[nH]1)c1cccc(F)c1 [Example 1-28, 3-fluorobenzoic acid 2-(5-chloro-1H-indole-2-carbonyl)hydrazide]
8 | 72 nM | Cc1ccccc1C(=O)NNC(=O)c1cc2cc(Cl)ccc2[nH]1 [Example 1-13, 2-methylbenzoic acid 2-(5-chloro-1H-indole-2-carbonyl)hydrazide]
9 | 270 nM | N=C(NNC(=O)c1cc2cc(Cl)ccc2[nH]1)c1ccccn1 [Example 1-136, 5-chloro-1H-indole-2-carboxylic acid 2-(imino-(pyridin-2-yl)-methyl)hydrazide]
10 | > 100 nM | CCc1ccc2[nH]c(C(=O)NNC(=O)c3ccccc3N)cc2c1 [Example 1-66, 2-aminobenzoic acid 2-(5-ethyl-1H-indole-2-carbonyl)hydrazide]
11 | 520 nM | O=C(NN1C(=O)CCN(c2cccc(Cl)c2)C1=O)c1cc2cc(Cl)ccc2[nH]1 [Example 3-11, 5-chloro-1H-indole-2-carboxylic acid (1-(3-chlorophenyl)-2,4-dioxoperhydropyrimidin-3-yl)amide]
12 | 730 nM | O=C(NN1C(=O)CCN(c2ccccc2)C1=O)c1cc2cc(F)ccc2[nH]1 [Example 3-9, 5-fluoro-1H-indole-2-carboxylic acid (2,4-dioxo-1-phenyl-perhydropyrimidin-3-yl)amide]
13 | 27 nM | O=C(O)COc1ccccc1C(=O)NNC(=O)c1cc2cc(Cl)ccc2[nH]1 [Example 1-50, 2-(2-(2-(5-chloro-1H-indole-2-carbonyl)hydrazinocarbonyl)phenoxy)acetic acid]
14 | 190 nM | O=C(NN1C(=O)CCN(c2ccc(F)cc2)C1=O)c1cc2cc(Cl)ccc2[nH]1 [Example 3-5, 5-chloro-1H-indole-2-carboxylic acid (1-(4-fluorophenyl)-2,4-dioxoperhydropyrimidin-3-yl)amide]
15 | 400 nM | O=C(NNC(=O)c1cc2cc(Cl)ccc2[nH]1)c1ccc[nH]1 [Example 1-80, 1H-pyrrole-2-carboxylic acid 2-(5-chloro-1H-indole-2-carbonyl)hydrazide]
16 | 170 nM | O=C(NNC(=O)c1ccc(Cl)cc1Cl)c1cc2cc(Cl)ccc2[nH]1 [Example 1-24, 2,4-dichlorobenzoic acid 2-(5-chloro-1H-indole-2-carbonyl)hydrazide]

Row | IC50 | SMILES
17 | 460 nM | N=C(NNC(=O)c1cc2cc(Cl)ccc2[nH]1)c1c(F)cccc1Cl [Example 1-138, 5-chloro-1H-indole-2-carboxylic acid 2-((2-chloro-6-fluorophenyl)-imino-methyl)hydrazide]
18 | 87 nM | COC(=O)Nc1ccccc1C(=O)NNC(=O)c1cc2cc(F)ccc2[nH]1 [Example 1-105, methyl (2-(2-(5-fluoro-1H-indole-2-carbonyl)hydrazinocarbonyl)phenyl)carbamate]
19 | 54 nM | Cc1ccc2[nH]c(C(=O)NNC(=O)c3cc(F)c(F)cc3N)cc2c1 [Example 1-67, 2-Amino-4,5-difluorobenzoic acid 2-(5-methyl-1H-indole-2-carbonyl)hydrazide]
20 | 62 nM | CN(C)C(=O)COc1cccc(C(=O)NNC(=O)c2cc3cc(Cl)ccc3[nH]2)c1 [Example 1-71, 2-(3-(2-(5-chloro-1H-indole-2-carbonyl)hydrazinocarbonyl)phenoxy)-N,N-dimethylacetamide]
21 | 110 nM | O=C(NN1C(=O)NC(c2ccccc2F)C1=O)c1cc2cc(Cl)ccc2[nH]1 (centres unmarked) [Example 4-14, 5-chloro-1H-indole-2-carboxylic acid (2,5-dioxo-4-(2-fluorophenyl)imidazolidin-1-yl)amide]
22 | 37 nM | CC(C)(COC(=O)Nc1ccccc1C(=O)NNC(=O)c1cc2cc(Cl)ccc2[nH]1)C(=O)O [Example 1-76, 3-((2-(2-(5-chloro-1H-indole-2-carbonyl)hydrazinocarbonyl)phenyl)carbamoyloxy)-2,2-dimethylpropionic acid]
23 | 75 nM | O=C(NNC(=O)C1CCCCC1)c1cc2cc(Cl)ccc2[nH]1 [Example 1-23, cyclohexanecarboxylic acid 2-(5-chloro-1H-indole-2-carbonyl)hydrazide]
24 | 680 nM | Cc1cccc(N2CCC(=O)N(NC(=O)c3cc4cc(Cl)ccc4[nH]3)C2=O)c1 [Example 3-12, 5-chloro-1H-indole-2-carboxylic acid (2,4-dioxo-1-(m-tolyl)perhydropyrimidin-3-yl)amide]
25 | 91 nM | O=C(Nn1c(=O)[nH]c2cc(Cl)ccc2c1=O)c1cc2cc(Cl)ccc2[nH]1 [Example 2-19, 5-chloro-1H-indole-2-carboxylic acid (7-chloro-1,2,3,4-tetrahydro-2,4-dioxoquinazolin-3-yl)amide]
26 | 200 nM | O=C(NNC(=O)C1CCCCC1)c1cc2cc(F)ccc2[nH]1 [Example 1-10, cyclohexanecarboxylic acid 2-(5-fluoro-1H-indole-2-carbonyl)hydrazide]
27 | 33 nM | N=C(NNC(=O)c1cc2cc(Cl)ccc2[nH]1)c1ccc(F)cc1 [Example 1-128, 5-chloro-1H-indole-2-carboxylic acid 2-((4-fluorophenyl)-imino-methyl)hydrazide]
28 | 76 nM | O=C(NNC(=O)c1cc2cc(Cl)ccc2[nH]1)c1ccc(-c2ncn[nH]2)cc1 [Example 1-73, 4-(2H-[1,2,4]triazol-3-yl)benzoic acid 2-(5-chloro-1H-indole-2-carbonyl)hydrazide]
29 | > 100 nM | COC(=O)Nc1ccccc1C(=O)NNC(=O)c1cc2cc(C)ccc2[nH]1 [Example 1-64, methyl (2-(2-(5-methyl-1H-indole-2-carbonyl)hydrazinocarbonyl)phenyl)carbamate]
30 | 67 nM | N=C(NNC(=O)c1cc2cc(Cl)ccc2[nH]1)c1ccc(F)c(F)c1 [Example 6-23, 5-chloro-1H-indole-2-carboxylic acid 2-((3,4-difluorophenyl)-imino-methyl)hydrazide methanesulfonate]
31 | 660 nM | CC(=O)Nc1ccccc1C(=O)NNC(=O)c1cc2cc(Cl)ccc2[nH]1 [Example 1-47, N-(2-(2-(5-chloro-1H-indole-2-carbonyl)hydrazinocarbonyl)phenyl)acetamide]
32 | 16 nM | O=C(Nn1c(=O)[nH]c2ccccc2c1=O)c1cc2cc(Cl)ccc2[nH]1 [Example 2, N-(1,2,3,4-tetrahydro-2,4-dioxoquinazolin-3-yl)-5-chloro-1H-indole-2-carboxamide]
